Where a name gives a salt, the structure may show the parent alone.

Consider 33 molecules from patent publication US8541407B2 (ArQule, Inc., priority 2010, dated 2013).

AKT1, sequence (P31749 whole entry): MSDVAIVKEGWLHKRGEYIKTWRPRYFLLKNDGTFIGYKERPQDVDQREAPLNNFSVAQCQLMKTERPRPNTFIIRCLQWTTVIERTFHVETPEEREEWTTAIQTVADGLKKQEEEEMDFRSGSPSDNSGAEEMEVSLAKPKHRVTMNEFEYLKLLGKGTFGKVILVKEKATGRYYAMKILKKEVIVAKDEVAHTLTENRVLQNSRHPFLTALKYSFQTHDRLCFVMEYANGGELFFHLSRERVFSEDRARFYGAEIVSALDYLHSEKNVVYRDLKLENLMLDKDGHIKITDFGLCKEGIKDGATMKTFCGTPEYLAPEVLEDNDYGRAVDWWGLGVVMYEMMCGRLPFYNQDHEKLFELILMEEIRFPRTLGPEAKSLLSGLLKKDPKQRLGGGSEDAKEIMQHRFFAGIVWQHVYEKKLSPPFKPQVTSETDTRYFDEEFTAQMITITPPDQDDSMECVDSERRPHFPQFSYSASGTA

This assay has as its target AKT1 (Homo sapiens (Human), UniProt P31749). Nature of the assay: Inactive Akt Alpha Screen Assay. The conditions noted are these: non *labeled: Akt Alpha Screen assay; read-out: AKT1 biochemical assay, IC50. Put shortly: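 AKT1 activated in situ by PDK1, MAPKAPK2, lipid vesicles and ATP, then phosphorylating biotinylated crosstide for 30 min at room temperature. Stopped with 10 mM EDTA; phosphopeptide detected by AlphaScreen using phospho-AKT substrate antibody (1:350), Protein A acceptor and streptavidin donor beads, 90 min dark, ex 640/em 570 nm.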
Usually IC50 stands for the midpoint of a concentration-inhibition curve. Regarding `CC(=O)Nc1ccc(S(=O)(=O)NC2CCN(Cc3ccc(-c4nnc5n4-c4cccnc4Nc4ccccc4-5)cc3)CC2)cc1` [Example 151, N-(4-(N-(1-(4-(9H-benzo[f]pyrido[2,3-b][1,2,4]triazolo[4,3-d][1,4]diazepin-3-yl)benzyl)piperidin-4-yl)sulfamoyl)phenyl)acetamide], the IC50 came out at 5000 nM. For the molecule `O=C(NCc1ccc(-c2nnc3n2-c2cccnc2Nc2ccccc2-3)cc1)c1ccco1` [Example 97, N-(4-(9H-benzo[f]pyrido[2,3-b][1,2,4]triazolo[4,3-d][1,4]diazepin-3-yl)benzyl)furan-2-carboxamide], the IC50 stood at 1100 nM. As for `c1ccc2c(c1)Nc1ncccc1-n1c(-c3ccc(CNCC4CC4)cc3)nnc1-2` [Example 93, N-(4-(9H-benzo[f]pyrido[2,3-b][1,2,4]triazolo[4,3-d][1,4]diazepin-3-yl)benzyl)-1-cyclopropylmethanamine], the concentration for half-maximal inhibition (IC50) is 6700 nM.

On to `COc1ccc(S(=O)(=O)NCc2ccc(-c3nnc4n3-c3cccnc3Nc3ccccc3-4)cc2)cc1` [Example 102, N-(4-(9H-benzo[f]pyrido[2,3-b][1,2,4]triazolo[4,3-d][1,4]diazepin-3-yl)benzyl)-4-methoxybenzenesulfonamide], for which the IC50 is 800 nM.

Turning to `Cn1ccc(S(=O)(=O)NCc2ccc(-c3nnc4n3-c3cccnc3Nc3ccccc3-4)cc2)n1` [Example 104, N-(4-(9H-benzo[f]pyrido[2,3-b][1,2,4]triazolo[4,3-d][1,4]diazepin-3-yl)benzyl)-1-methyl-1H-pyrazole-3-sulfonamide], the 50% inhibitory concentration (IC50) was found to be 120 nM.

Take `Cc1cccc(NC(=O)NC2CCN(Cc3ccc(-c4nnc5n4-c4cccnc4Nc4ccccc4-5)cc3)CC2)c1` [Example 170, 1-(1-(4-(9H-benzo[f]pyrido[2,3-b][1,2,4]triazolo[4,3-d][1,4]diazepin-3-yl)benzyl)piperidin-4-yl)-3-(m-tolyl)urea]: the IC50 came out at 660 nM.

Turning to `NC1(c2ccc(-c3nnc4n3-c3cccnc3Nc3ccc(-c5ccccc5)cc3-4)cc2)CCC1` [Example 224, 1-(4-(12-phenyl-9H-benzo[f]pyrido[2,3-b][1,2,4]triazolo[4,3-d][1,4]diazepin-3-yl)phenyl)cyclobutanamine], the IC50 turned out to be 1200 nM. Turning to `COc1ccccc1NC(=O)NC1CCN(Cc2ccc(-c3nnc4n3-c3cccnc3Nc3ccccc3-4)cc2)CC1` [Example 183, 1-(1-(4-(9H-benzo[f]pyrido[2,3-b][1,2,4]triazolo[4,3-d][1,4]diazepin-3-yl)benzyl)piperidin-4-yl)-3-(2-methoxyphenyl)urea], the IC50 is 700 nM. Then `CN1c2ccccc2-c2nnc(-c3ccc4ccccc4c3)n2-c2ccccc21` [Example 14, hydrochloride], with 67000 nM.

Regarding `CC(C)CN(C)Cc1ccc(-c2nnc3n2-c2cccnc2Nc2ccccc2-3)cc1` [Example 85, N-(4-(9H-benzo[f]pyrido[2,3-b][1,2,4]triazolo[4,3-d][1,4]diazepin-3-yl)benzyl)-N,2-dimethylpropan-1-amine], the IC50 worked out at 7100 nM.

Take `O=C(c1ccco1)N1CCN(Cc2ccc(-c3nnc4n3-c3cccnc3Nc3ccccc3-4)cc2)CC1` [Example 92, (4-(4-(9H-benzo[f]pyrido[2,3-b][1,2,4]triazolo[4,3-d][1,4]diazepin-3-yl)benzyl)piperazin-1-yl)(furan-2-yl)methanone]: the IC50 worked out at 1400 nM. Regarding `O=C(Nc1ccccc1F)NC1CCN(Cc2ccc(-c3nnc4n3-c3cccnc3Nc3ccccc3-4)cc2)CC1` [Example 167, 1-(1-(4-(9H-benzo[f]pyrido[2,3-b][1,2,4]triazolo[4,3-d][1,4]diazepin-3-yl)benzyl)piperidin-4-yl)-3-(2-fluorophenyl)urea], the half-maximal inhibitory concentration (IC50) came out at 440 nM. Take `CC(C)(C)C(=O)Nc1ccc(-c2nnc3n2-c2cccnc2Nc2ccccc2-3)cc1` [Example 43, N-(4-(9H-benzo[f]pyrido[2,3-b][1,2,4]triazolo[4,3-d][1,4]diazepin-3-yl)phenyl)pivalamide]: the IC50 worked out at 420 nM. With `Cc1ccc2c(c1)-c1nnc(-c3ccc(C4(N)CCC4)cc3)n1-c1cccnc1N2` [Example 216, 1-(4-(12-methyl-9H-benzo[f]pyrido[2,3-b][1,2,4]triazolo[4,3-d][1,4]diazepin-3-yl)phenyl)cyclobutanamine], the IC50 amounted to 960 nM. Then `COc1ccc(C)cc1NC(=O)NC1CCN(Cc2ccc(-c3nnc4n3-c3cccnc3Nc3ccccc3-4)cc2)CC1` [Example 166, 1-(1-(4-(9H-benzo[f]pyrido[2,3-b][1,2,4]triazolo[4,3-d][1,4]diazepin-3-yl)benzyl)piperidin-4-yl)-3-(2-methoxy-5-methylphenyl)urea], with 720 nM; and `c1ccc(OC2CCN(Cc3ccc(-c4nnc5n4-c4cccnc4Nc4ccccc4-5)cc3)CC2)cc1` [Example 188, 3-(4-((4-phenoxypiperidin-1-yl)methyl)phenyl)-9H-benzo[f]pyrido[2,3-b][1,2,4]triazolo[4,3-d][1,4]diazepine], with 830 nM. Take `CC(C)CC(=O)Nc1ccc(-c2nnc3n2-c2cccnc2Nc2ccccc2-3)cc1` [Example 33, N-(4-(9H-benzo[f]pyrido[2,3-b][1,2,4]triazolo[4,3-d][1,4]diazepin-3-yl)phenyl)-3-methylbutanamide]: the IC50 is 700 nM.

With `O=C(Nc1ccc(-c2nnc3n2-c2cccnc2Nc2ccccc2-3)cc1)c1cccc2ccccc12` [Example 34, N-(4-(9H-benzo[f]pyrido[2,3-b][1,2,4]triazolo[4,3-d][1,4]diazepin-3-yl)phenyl)-1-naphthamide], the IC50 amounted to 640 nM. Take `Clc1ccc(-c2nnc3n2-c2cccnc2Nc2ccccc2-3)cc1Cl` [Example 13, hydrochloride]: the IC50 worked out at 5100 nM. Take `O=C(c1ccccc1)N1CCN(Cc2ccc(-c3nnc4n3-c3cccnc3Nc3ccccc3-4)cc2)CC1` [Example 144, (4-(4-(9H-benzo[f]pyrido[2,3-b][1,2,4]triazolo[4,3-d][1,4]diazepin-3-yl)benzyl)piperazin-1-yl)(phenyl)methanone]: the IC50 was 1900 nM.

Regarding `CC(=O)NC1CCN(Cc2ccc(-c3nnc4n3-c3cccnc3Nc3ccccc3-4)cc2)C1` (stereo not drawn) [Example 86, N-(1-(4-(9H-benzo[f]pyrido[2,3-b][1,2,4]triazolo[4,3-d][1,4]diazepin-3-yl)benzyl)pyrrolidin-3-yl)acetamide], the IC50 amounted to 3400 nM.

`Cc1cccc(C(=O)N2CCN(Cc3ccc(-c4nnc5n4-c4cccnc4Nc4ccccc4-5)cc3)CC2)c1` [Example 136, (4-(4-(9H-benzo[f]pyrido[2,3-b][1,2,4]triazolo[4,3-d][1,4]diazepin-3-yl)benzyl)piperazin-1-yl)(m-tolyl)methanone]: the half-maximal inhibitory concentration (IC50) was found to be 1300 nM.

As for `NCc1ccc(-c2nnc3n2-c2cccnc2Nc2ccc(Br)cc2-3)cc1` [Example 227, (4-(12-bromo-9H-benzo[f]pyrido[2,3-b][1,2,4]triazolo[4,3-d][1,4]diazepin-3-yl)phenyl)methanamine], the IC50 was determined as 6100 nM.

As for `O=C(NCc1ccc(-c2nnc3n2-c2cccnc2Nc2ccccc2-3)cc1)C1CCC1` [Example 100, N-(4-(9H-benzo[f]pyrido[2,3-b][1,2,4]triazolo[4,3-d][1,4]diazepin-3-yl)benzyl)cyclobutanecarboxamide], the IC50 is 1800 nM. Turning to `COc1cccc(S(=O)(=O)NC2CCN(Cc3ccc(-c4nnc5n4-c4cccnc4Nc4ccccc4-5)cc3)CC2)c1` [Example 150, N-(1-(4-(9H-benzo[f]pyrido[2,3-b][1,2,4]triazolo[4,3-d][1,4]diazepin-3-yl)benzyl)piperidin-4-yl)-3-methoxybenzenesulfonamide], the IC50 was 3000 nM. With `COCCN(C)Cc1ccc(-c2nnc3n2-c2cccnc2Nc2ccccc2-3)cc1` [Example 77, N-(4-(9H-benzo[f]pyrido[2,3-b][1,2,4]triazolo[4,3-d][1,4]diazepin-3-yl)benzyl)-2-methoxy-N-methylethanamine], the IC50 worked out at 4700 nM. As for `NC1(c2ccc(-c3nnc4n3-c3cccnc3Nc3ccccc3-4)cc2)CC1` [Example 222, 1-(4-(9H-benzo[f]pyrido[2,3-b][1,2,4]triazolo[4,3-d][1,4]diazepin-3-yl)phenyl)cyclopropanamine], the IC50 worked out at 140 nM.

Take `OC1CCCN(Cc2ccc(-c3nnc4n3-c3cccnc3Nc3ccccc3-4)cc2)C1` (stereo not drawn) [Example 83, 1-(4-(9H-benzo[f]pyrido[2,3-b][1,2,4]triazolo[4,3-d][1,4]diazepin-3-yl)benzyl)piperidin-3-ol]: the IC50 is 5700 nM. Then `O=C(Nc1ccc(-c2nnc3n2-c2cccnc2Nc2ccccc2-3)cc1)c1cnc2ccccc2n1` [Example 55, N-(4-(9H-benzo[f]pyrido[2,3-b][1,2,4]triazolo[4,3-d][1,4]diazepin-3-yl)phenyl)quinoxaline-2-carboxamide], with 160 nM. As for `O=C(Nc1ccc(-c2nnc3n2-c2cccnc2Nc2ccccc2-3)cc1)c1ccc2c(c1)OCO2` [Example 47, N-(4-(9H-benzo[f]pyrido[2,3-b][1,2,4]triazolo[4,3-d][1,4]diazepin-3-yl)phenyl)benzo[d][1,3]dioxole-5-carboxamide], the IC50 was found to be 53 nM. Then `c1ccc(CN2CCN(Cc3ccc(-c4nnc5n4-c4cccnc4Nc4ccccc4-5)cc3)CC2)cc1` [Example 82, 3-(4-((4-benzylpiperazin-1-yl)methyl)phenyl)-9H-benzo[f]pyrido[2,3-b][1,2,4]triazolo[4,3-d][1,4]diazepine], with 5300 nM.

Take `c1ccc(OC2CCCN(Cc3ccc(-c4nnc5n4-c4cccnc4Nc4ccccc4-5)cc3)C2)cc1` (stereo not drawn) [Example 189, 3-(4-((3-phenoxypiperidin-1-yl)methyl)phenyl)-9H-benzo[f]pyrido[2,3-b][1,2,4]triazolo[4,3-d][1,4]diazepine]: the IC50 was determined as 920 nM. Turning to `c1ccc(-c2nnc3n2-c2ccccc2Nc2ccccc2-3)cc1` [Example 20, 3-phenyl-9H-dibenzo[b,f][1,2,4]triazolo[4,3-d][1,4]diazepine], the IC50 amounted to 1900 nM.
